Measured values taken from US20180110754A1, “CENICRIVIROC FOR THE TREATMENT OF FIBROSIS” (Tobira Therapeutics, Inc., priority 2015, published 2018).

How the values were obtained:
[1] = Study 202: ECG abnormalities and vital signs; assay type: in vivo, human; conditions: All CVC (N = 115); EFV (N = 28), through Week 48
HIV-1 = test: Study 202 Phase 2b: virologic response (HIV-1 RNA <50 copies/mL, FDA Snapshot); assay type: in vivo, human; conditions: EFV + FTC/TDF
Source text: (§1) Subjects with a history of HIV-2, hepatitis B and/or C, cirrhosis of the liver or any known active or chronic active liver disease were excluded from the study.
The primary efficacy endpoint was virologic response at Week 24, defined as HIV-1 RNA<50 copies/mL using the FDA Snapshot Algorithm.

[2] = Source text: as §1
Most AEs were mild or moderate (Grade 1 or Grade 2). […] None of the Grade ≥3 AEs (preferred terms) were reported in more than 1 subject.

Structure (SMILES): O=C1Nc2ccc(Cl)cc2[C@@](C#CC2CC2)(C(F)(F)F)O1 [EFV, efavirenz, reference compound]
- HR Abnormally high, n subjects [1]: 0
- HR Abnormally low, n subjects [1]: 0
- PR Abnormally high, n subjects [1]: 1
- QRS Abnormally high, n subjects [1]: 0
- QRS Abnormally low, n subjects [1]: 0
- QTcB interval Borderline (450-480 ms), n subjects [1]: 3
- QTcB interval Increase by >30-60 ms, n subjects [1]: 4
- QTcB interval Increase by >60 ms, n subjects [1]: 0
- QTcB interval Pathologically prolonged, n subjects [1]: 0
- QTcB interval Prolonged, n subjects [1]: 0
- QTcF interval Borderline (450-480 ms), n subjects [1]: 0
- QTcF interval Increase by >30-60 ms, n subjects [1]: 4
- QTcF interval Increase by >60 ms, n subjects [1]: 0
- QTcF interval Pathologically prolonged, n subjects [1]: 0
- QTcF interval Prolonged, n subjects [1]: 0
- Virologic success (HIV-1 RNA <50 copies/mL) (HIV-1; Week 24): 71%
- Virologic success (HIV-1 RNA <50 copies/mL) (HIV-1; Week 48): 50%
- SAE: Suicidal ideation, n subjects ([2]; All CVC (N = 115), EFV (N = 28), through Week 48): 1
- Grade 3 or 4 AE: Suicidal ideation, n subjects ([2]; All CVC (N = 115), EFV (N = 28; Grade 4 event)): 1
- Deaths ([2]; EFV (N = 28)): 0 n
- Grade 3 or 4 AE: Blood creatine phosphokinase increased, n subjects ([2]; human, in vivo, 48 week): 0
- Grade 3 or 4 AE: Cardiac disorders, n subjects ([2]; human, in vivo, 48 week): 0
- Grade 3 or 4 AE: Depression, n subjects ([2]; human, in vivo, 48 week): 1
- Grade 3 or 4 AE: Ear and labyrinth disorders, n subjects ([2]; human, in vivo, 48 week): 1
- Grade 3 or 4 AE: Investigations, n subjects ([2]; human, in vivo, 48 week): 1
- Grade 3 or 4 AE: Palpitations, n subjects ([2]; human, in vivo, 48 week): 0
- Grade 3 or 4 AE: Psychiatric disorders, n subjects ([2]; human, in vivo, 48 week): 1
- Grade 3 or 4 AE: Stress, n subjects ([2]; human, in vivo, 48 week): 0
- Grade 3 or 4 AE: Weight decreased, n subjects ([2]; human, in vivo, 48 week): 1
- AE Abnormal dreams, n subjects ([2]; human, in vivo, 48 weeks): 6
- AE Depression, n subjects ([2]; human, in vivo, 48 weeks): 3
- AE Diarrhoea, n subjects ([2]; human, in vivo, 48 weeks): 3
- AE Dizziness, n subjects ([2]; human, in vivo, 48 weeks): 8
- AE Fatigue, n subjects ([2]; human, in vivo, 48 weeks): 1
- AE Headache, n subjects ([2]; human, in vivo, 48 weeks): 0
- AE Insomnia, n subjects ([2]; human, in vivo, 48 weeks): 4
- AE Lymphadenopathy, n subjects ([2]; human, in vivo, 48 weeks): 4
- AE Nasopharyngitis, n subjects ([2]; human, in vivo, 48 weeks): 1
- AE Nausea, n subjects ([2]; human, in vivo, 48 weeks): 6
- AE Rash, n subjects ([2]; human, in vivo, 48 weeks): 5
- AE Syphilis, n subjects ([2]; human, in vivo, 48 weeks): 3
- AE Upper respiratory tract infection, n subjects ([2]; human, in vivo, 48 weeks): 2
- AE leading to discontinuation: Abnormal dreams, n subjects ([2]; human, in vivo, 48 weeks): 1
- AE leading to discontinuation: Aggression, n subjects ([2]; human, in vivo, 48 weeks): 0
- AE leading to discontinuation: Anxiety, n subjects ([2]; human, in vivo, 48 weeks): 1
- AE leading to discontinuation: Depression, n subjects ([2]; human, in vivo, 48 weeks): 1
- AE leading to discontinuation: Dermatitis allergic, n subjects ([2]; human, in vivo, 48 weeks): 1
- AE leading to discontinuation: Disturbance in attention, n subjects ([2]; human, in vivo, 48 weeks): 1
- AE leading to discontinuation: Dizziness, n subjects ([2]; human, in vivo, 48 weeks): 2
- AE leading to discontinuation: Ear and labyrinth disorders, n subjects ([2]; human, in vivo, 48 weeks): 1
- AE leading to discontinuation: Eye disorders, n subjects ([2]; human, in vivo, 48 weeks): 1
- AE leading to discontinuation: Gastrointestinal disorders, n subjects ([2]; human, in vivo, 48 weeks): 1
- AE leading to discontinuation: General disorders and administration site conditions, n subjects ([2]; human, in vivo, 48 weeks): 0
- AE leading to discontinuation: Hypoaesthesia, n subjects ([2]; human, in vivo, 48 weeks): 1
- AE leading to discontinuation: Insomnia, n subjects ([2]; human, in vivo, 48 weeks): 3
- AE leading to discontinuation: Malaise, n subjects ([2]; human, in vivo, 48 weeks): 0
- AE leading to discontinuation: Musculoskeletal and connective tissue disorders, n subjects ([2]; human, in vivo, 48 weeks): 1
- AE leading to discontinuation: Musculoskeletal discomfort, n subjects ([2]; human, in vivo, 48 weeks): 1
- AE leading to discontinuation: Nausea, n subjects ([2]; human, in vivo, 48 weeks): 1
- AE leading to discontinuation: Nervous system disorders, n subjects ([2]; human, in vivo, 48 weeks): 4
- AE leading to discontinuation: Photophobia, n subjects ([2]; human, in vivo, 48 weeks): 1
- AE leading to discontinuation: Psychiatric disorders, n subjects ([2]; human, in vivo, 48 weeks): 3
- AE leading to discontinuation: Rash, n subjects ([2]; human, in vivo, 48 weeks): 1
- AE leading to discontinuation: Skin and subcutaneous tissue disorders, n subjects ([2]; human, in vivo, 48 weeks): 2
- AE leading to discontinuation: Tachyphrenia, n subjects ([2]; human, in vivo, 48 weeks): 1
- AE leading to discontinuation: Thinking abnormal, n subjects ([2]; human, in vivo, 48 weeks): 0
- AE leading to discontinuation: Tinnitus, n subjects ([2]; human, in vivo, 48 weeks): 1
- Any AE leading to discontinuation of study drug, n subjects ([2]; human, in vivo, 48 weeks): 6
- Any AE, n subjects ([2]; human, in vivo, 48 weeks): 27
- Any Grade 3 AE, n subjects ([2]; human, in vivo, 48 weeks): 3
- Any Grade 4 AE, n subjects ([2]; human, in vivo, 48 weeks): 1
- Any SAE, n subjects ([2]; human, in vivo, 48 weeks): 1
- Grade 3 or 4 AE: Abdominal pain, n subjects ([2]; human, in vivo, 48 weeks): 0
- Grade 3 or 4 AE: Blindness unilateral, n subjects ([2]; human, in vivo, 48 weeks): 0
- Grade 3 or 4 AE: Corneal infection, n subjects ([2]; human, in vivo, 48 weeks): 0
- Grade 3 or 4 AE: Dermatitis allergic, n subjects ([2]; human, in vivo, 48 weeks): 1
- Grade 3 or 4 AE: Eye disorders, n subjects ([2]; human, in vivo, 48 weeks): 0
- Grade 3 or 4 AE: Gastrointestinal disorders, n subjects ([2]; human, in vivo, 48 weeks): 0
- Grade 3 or 4 AE: General disorders and administration site conditions, n subjects ([2]; human, in vivo, 48 weeks): 0
- Grade 3 or 4 AE: Infections and infestations, n subjects ([2]; human, in vivo, 48 weeks): 0
- Grade 3 or 4 AE: Pyrexia, n subjects ([2]; human, in vivo, 48 weeks): 0
- Grade 3 or 4 AE: Skin and subcutaneous tissue disorders, n subjects ([2]; human, in vivo, 48 weeks): 1
- Grade 3 or 4 AE: Tinnitus, n subjects ([2]; human, in vivo, 48 weeks): 1
- SAE: Blindness unilateral, n subjects ([2]; human, in vivo, 48 weeks): 0
- SAE: Corneal infection, n subjects ([2]; human, in vivo, 48 weeks): 0
- SAE: Depression, n subjects ([2]; human, in vivo, 48 weeks): 1
- SAE: Eye disorders, n subjects ([2]; human, in vivo, 48 weeks): 0
- SAE: Gastroenteritis, n subjects ([2]; human, in vivo, 48 weeks): 0
- SAE: Infections and infestations, n subjects ([2]; human, in vivo, 48 weeks): 0
- SAE: Psychiatric disorders, n subjects ([2]; human, in vivo, 48 weeks): 1
- Subjects who experienced a Grade ≥3 AE ([2]; human, in vivo, 48 weeks): 15%
